Consider 21 compounds from patent publication US11608335B2, “Somatostatin modulators and uses thereof” (CRINETICS PHARMACEUTICALS, INC., priority 2018, dated 2023).

In assay [1] the target is T1, human somatostatin receptor subtype 2 (Homo sapiens, UniProt P30874).
T1 construct: expressed in transfected cells
Description: cAMP assay for SST2R (inhibition of cAMP via human SST2 receptor). It counts as cell-based. Conditions: Table B, read-out: SST2 potency. An excerpt:
cAMP Assay Protocol for SST2R:
(Cyclic AMP is a second messenger, typically raised through Gs and lowered through Gi signalling.)

The target of assay [2] is T2, human somatostatin receptor subtype 4 (Homo sapiens, UniProt P31391).
T2 construct: expressed in transfected cells
Description: cAMP assay for hSST4R (inhibition of cAMP via human SST4 receptor). It counts as cell-based. Conditions: from inhibition of cAMP via human SST5 receptor and human SST4 receptor. The text has this: cAMP Assay Protocol hSST4R:

Assay [3] addresses human somatostatin receptor subtype 5 (Homo sapiens, UniProt P35346). Description: cAMP assay for SST5R (inhibition of cAMP via human SST5 receptor).
Description: cAMP Assay Protocol for SST5R:
The cells are cultured at 37° C., 5% CO2 and 95% humidity. […] The cells are incubated for 20 minutes at 37° C. […] The cells are treated with 50 μL of lysis buffer (HRTF cAMP kit, Cisbio) for 30 minutes and then the lysate is diluted to 250 μL with assay buffer. The lysate is transferred to 384-well plates and cAMP detection and visualization antibodies are added and incubated for 1-24 hours at room temperature. The time-resolved fluorescent signal is read with a Tecan M1000Pro multiplate reader. The intracellular cAMP concentrations are calculated by regression to a standard curve and are plotted vs. the concentration of the compounds of the invention and the EC50 of the compounds are calculated using standard methods. All data manipulations are in GraphPad Prism v6 or v7.
Where [4] appears, read: read-out: SST5 potency, inhibition of cAMP via human SST5 receptor, Table B.

Like-named read-outs stand apart in the source and are kept apart here.

human somatostatin receptor subtype 5, sequence (P35346 whole entry): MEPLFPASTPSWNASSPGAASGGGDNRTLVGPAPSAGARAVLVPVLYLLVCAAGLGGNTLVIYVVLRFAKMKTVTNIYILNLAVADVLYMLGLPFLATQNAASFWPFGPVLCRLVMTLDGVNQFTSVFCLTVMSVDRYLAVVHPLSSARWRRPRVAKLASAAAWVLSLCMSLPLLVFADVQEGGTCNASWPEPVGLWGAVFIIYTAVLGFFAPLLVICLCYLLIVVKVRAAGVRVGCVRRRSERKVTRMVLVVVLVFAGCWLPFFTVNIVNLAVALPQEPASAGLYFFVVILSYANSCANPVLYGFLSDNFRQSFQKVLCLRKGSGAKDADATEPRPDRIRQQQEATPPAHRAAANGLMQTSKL
T2 sequence (P31391 whole entry): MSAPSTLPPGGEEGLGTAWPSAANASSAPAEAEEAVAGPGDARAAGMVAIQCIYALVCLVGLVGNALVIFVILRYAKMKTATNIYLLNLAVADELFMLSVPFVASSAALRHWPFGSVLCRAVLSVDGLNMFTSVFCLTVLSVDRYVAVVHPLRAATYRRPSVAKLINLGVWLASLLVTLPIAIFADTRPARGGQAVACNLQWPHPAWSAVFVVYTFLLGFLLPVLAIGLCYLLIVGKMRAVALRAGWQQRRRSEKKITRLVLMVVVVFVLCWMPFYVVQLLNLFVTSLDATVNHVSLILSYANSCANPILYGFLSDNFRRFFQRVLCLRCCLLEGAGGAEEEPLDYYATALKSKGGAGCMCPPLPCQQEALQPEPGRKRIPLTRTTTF
T1 sequence (P30874 whole entry): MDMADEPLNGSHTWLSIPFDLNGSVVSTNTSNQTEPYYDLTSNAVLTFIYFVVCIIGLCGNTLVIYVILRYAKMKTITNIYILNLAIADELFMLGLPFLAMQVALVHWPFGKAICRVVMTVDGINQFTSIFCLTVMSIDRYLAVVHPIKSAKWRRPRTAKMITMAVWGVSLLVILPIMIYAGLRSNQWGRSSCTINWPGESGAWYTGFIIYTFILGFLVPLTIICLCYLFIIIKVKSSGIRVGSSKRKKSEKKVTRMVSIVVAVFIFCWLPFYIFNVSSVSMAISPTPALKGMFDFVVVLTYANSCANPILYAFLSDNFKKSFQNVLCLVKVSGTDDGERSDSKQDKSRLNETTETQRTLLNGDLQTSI

`Cc1cccc2nc(-c3cncc(-c4ccnc(C#N)c4)c3N3CC[C@](C)(N)C3)[nH]c12` [Compound 2-145, 4-[(3S)-3-amino-3-methylpyrrolidin-1-yl]-5-(4-methyl-1H-1,3-benzodiazol-2-yl)-[3,4′-bipyridine]-2′-carbonitrile]: the EC50 in assay [1] was 100 to 1000 nM; in assay [3], below 10 nM; in assay [3] (setting [4]), below 10 nM. In assay [2], the “Fold selectivity for SST5 vs SST4” value is recorded as 63 fold. Also, in assay [3] (SST5 over SST2, class symbols), the “Fold selectivity for SST5 vs SST2” value is on record as “+++ (+++=≥500)”.

As for `NCC1CN(c2c(-c3ccc4ccccc4c3)cncc2-c2nc3cc(F)cc(F)c3[nH]2)C1` [Compound 1-41, 1-{1-[3-(4,6-difluoro-1H-1,3-benzodiazol-2-yl)-5-(naphthalen-2-yl)pyridin-4-yl]azetidin-3-yl}methanamine], the “Fold selectivity for SST5 vs SST4” value in assay [2] came to 8.8 fold. This compound displayed an EC50 in assay [3] of 100 to 1000 nM.

In the case of `CC1(N)CCN(c2c(-c3ccnc(C#N)c3)cncc2-c2nc3cccc(Cl)c3[nH]2)C1` (centres unmarked) [Compound 2-157, 4-(3-amino-3-methylpyrrolidin-1-yl)-5-(4-chloro-1H-1,3-benzodiazol-2-yl)-[3,4′-bipyridine]-2′-carbonitrile], the EC50 is 10 to 100 nM in assay [1], below 10 nM in assay [3] and below 10 nM in assay [3] (setting [4]). Also, the “Fold selectivity for SST5 vs SST2” value in assay [3] (SST5 over SST2, class symbols) is “+++ (+++=≥500)”.

Regarding `Cc1cccc(-c2cncc(-c3nc4c(C)cccc4[nH]3)c2N2CCC(N)CC2)c1`, the EC50 in assay [1] was below 10 nM; in assay [3] it was above 1000 nM. Also, the “Fold selectivity for SST5 vs SST2” value in assay [3] (SST5 over SST2, given as number (comparison compounds)) was determined as 0.002.

As for `Cc1ccc(F)c2nc(-c3cncc(-c4ccc(F)c(C(N)=O)c4)c3N3CCC(C)(N)C3)[nH]c12` (centres unmarked) [Compound 2-125, 5-[4-(3-amino-3-methylpyrrolidin-1-yl)-5-(7-fluoro-4-methyl-1H-1,3-benzodiazol-2-yl)pyridin-3-yl]-2-fluorobenzamide], the figures for the EC50 in assay [1], in assay [3] and in assay [3] (setting [4]) were 100 to 1000 nM, below 10 nM and below 10 nM, respectively. Further, the “Fold selectivity for SST5 vs SST2” value in assay [3] (SST5 over SST2, class symbols) is “+++ (+++=≥500)”.

`CC1(N)CCN(c2c(-c3cccc(OC(F)(F)F)c3)cncc2-c2nc3cccc(F)c3[nH]2)C1` (centres unmarked) [Compound 2-10, 1-[3-(4-fluoro-1H-1,3-benzodiazol-2-yl)-5-[3-(trifluoromethoxy)phenyl]pyridin-4-yl]-3-methylpyrrolidin-3-amine]: the EC50 in assay [1] is 100 to 1000 nM; in assay [3] it was below 10 nM; in assay [3] (setting [4]) it was below 10 nM. The “Fold selectivity for SST5 vs SST2” value in assay [3] (SST5 over SST2, class symbols) is “+++ (+++=≥500)”.

Regarding `Cc1c(F)ccc2nc(-c3cncc(-c4cc(F)cc(C#N)c4)c3N3CC[C@H](N)C3)[nH]c12` [Compound 2-86, 3-{4-[(3S)-3-aminopyrrolidin-1-yl]-5-(5-fluoro-4-methyl-1H-1,3-benzodiazol-2-yl)pyridin-3-yl}-5-fluorobenzonitrile], the EC50 in assay [1] was 100 to 1000 nM; in assay [3], below 10 nM; in assay [3] (setting [4]) it was below 10 nM. For the same compound, the “Fold selectivity for SST5 vs SST2” value in assay [3] (SST5 over SST2, class symbols) is given as “++ (++=100 to 499)”.

Regarding `N#Cc1cc(-c2cncc(-c3nc4c(F)ccc(F)c4[nH]3)c2N2CC[C@H](N)C2)ccc1F` [Compound 2-44, 5-{4-[(3S)-3-aminopyrrolidin-1-yl]-5-(4,7-difluoro-1H-1,3-benzodiazol-2-yl)pyridin-3-yl}-2-fluorobenzonitrile], the EC50 in assay [1] was 100 to 1000 nM; in assay [3], below 10 nM; in assay [3] (setting [4]), below 10 nM. In addition, the “Fold selectivity for SST5 vs SST2” value in assay [3] (SST5 over SST2, class symbols) is on record as “+++ (+++=≥500)”.

In the case of `N#Cc1cc(-c2cncc(-c3nc4cccc(C(F)(F)F)c4[nH]3)c2N2CC[C@H](N)C2)ccc1F` [Compound 2-60, 5-{4-[(3S)-3-aminopyrrolidin-1-yl]-5-[4-(trifluoromethyl)-1H-1,3-benzodiazol-2-yl]pyridin-3-yl}-2-fluorobenzonitrile], the EC50 in assay [1] was 100 to 1000 nM; in assay [3], below 10 nM; in assay [3] (setting [4]) it was below 10 nM. Also, in assay [3] (SST5 over SST2, class symbols), the “Fold selectivity for SST5 vs SST2” value was “++ (++=100 to 499)”.

For `Cc1cc(F)cc(-c2cncc(-c3nc4cccc(Cl)c4[nH]3)c2N2CC(CN)C2)c1` [Compound 1-3, 1-{1-[3-(4-chloro-1H-1,3-benzodiazol-2-yl)-5-(3-fluoro-5-methylphenyl)pyridin-4-yl]azetidin-3-yl}methanamine], the EC50 in assay [1] is 100 to 1000 nM; in assay [3], below 10 nM; in assay [3] (setting [4]), below 10 nM. In assay [3] (SST5 over SST2, class symbols), the “Fold selectivity for SST5 vs SST2” value was “++ (++=100 to 499)”.

For the compound `Cc1c(F)ccc2nc(-c3cncc(-c4ccnc(C#N)c4)c3N3CC[C@](C)(N)C3)[nH]c12` [Compound 2-164, 4-[(3S)-3-amino-3-methylpyrrolidin-1-yl]-5-(5-fluoro-4-methyl-1H-1,3-benzodiazol-2-yl)-[3,4′-bipyridine]-2′-carbonitrile], the “Fold selectivity for SST5 vs SST4” value in assay [2] was 323 fold. In addition, the EC50 in assay [3] is below 10 nM.

With `NCC1CN(c2c(-c3cc(F)cc(Cl)c3)cncc2-c2nc3cc(F)cc(F)c3[nH]2)C1` [Compound 1-39, 1-{1-[3-(3-chloro-5-fluorophenyl)-5-(4,6-difluoro-1H-1,3-benzodiazol-2-yl)pyridin-4-yl]azetidin-3-yl}methanamine], the EC50 in assay [1] is above 1000 nM; in assay [3] it was below 10 nM; in assay [3] (setting [4]) it was below 10 nM. Moreover, in assay [3] (SST5 over SST2, class symbols), the “Fold selectivity for SST5 vs SST2” value was “+++ (+++=≥500)”.

Regarding `N#Cc1cccc(-c2cncc(-c3nc4cccc(Br)c4[nH]3)c2N2CC[C@H](N)C2)c1` [Compound 2-57, 3-{4-[(3S)-3-aminopyrrolidin-1-yl]-5-(4-bromo-1H-1,3-benzodiazol-2-yl)pyridin-3-yl}benzonitrile], the figures for the EC50 in assay [1], in assay [3] and in assay [3] (setting [4]) were 100 to 1000 nM, below 10 nM and below 10 nM, respectively. Moreover, the “Fold selectivity for SST5 vs SST2” value in assay [3] (SST5 over SST2, class symbols) is “+++ (+++=≥500)”.

Take `N#Cc1cccc(-c2cncc(-c3nc4c(F)cccc4[nH]3)c2N2CCC(N)(CO)C2)c1` (centres unmarked) [Compound 2-54, 3-{4-[3-amino-3-(hydroxymethyl)pyrrolidin-1-yl]-5-(4-fluoro-1H-1,3-benzodiazol-2-yl)pyridin-3-yl}benzonitrile]: the EC50 in assay [1] is 100 to 1000 nM; in assay [3], below 10 nM; in assay [3] (setting [4]) it was below 10 nM. In assay [3] (SST5 over SST2, class symbols), the “Fold selectivity for SST5 vs SST2” value is on record as “+++ (+++=≥500)”.

Turning to `Cc1cc(F)cc(-c2cncc(-c3nc4c(F)ccc(F)c4[nH]3)c2N2CC(CN)C2)c1` [Compound 1-37, 1-{1-[3-(4,7-difluoro-1H-1,3-benzodiazol-2-yl)-5-(3-fluoro-5-methylphenyl)pyridin-4-yl]azetidin-3-yl}methanamine], the EC50 was above 1000 nM in assay [1], below 10 nM in assay [3] and below 10 nM in assay [3] (setting [4]). Further, the “Fold selectivity for SST5 vs SST2” value in assay [3] (SST5 over SST2, class symbols) is listed as “+++ (+++=≥500)”.

As for `Cc1cncc2nc(-c3cncc(-c4ccc(F)c(C#N)c4)c3N3CCC(C)(N)C3)[nH]c12` (centres unmarked) [Compound 2-149, 5-[4-(3-amino-3-methylpyrrolidin-1-yl)-5-{7-methyl-3H-imidazo[4,5-c]pyridin-2-yl}pyridin-3-yl]-2-fluorobenzonitrile], the EC50 in assay [1] is 100 to 1000 nM; in assay [3] it was below 10 nM; in assay [3] (setting [4]), below 10 nM. Besides, the “Fold selectivity for SST5 vs SST2” value in assay [3] (SST5 over SST2, class symbols) is recorded as “++ (++=100 to 499)”.

In the case of `Cc1ccnc2[nH]c(-c3cncc(-c4cc(F)c(F)c(C#N)c4)c3N3CC[C@](C)(N)C3)nc12` [Compound 2-165, 5-{4-[(3S)-3-amino-3-methylpyrrolidin-1-yl]-5-{7-methyl-1H-imidazo[4,5-b]pyridin-2-yl}pyridin-3-yl}-2,3-difluorobenzonitrile], the values for the EC50 in assay [1], in assay [3] and in assay [3] (setting [4]) were 100 to 1000 nM, below 10 nM and below 10 nM, respectively. The “Fold selectivity for SST5 vs SST4” value in assay [2] was determined as 56 fold. In assay [3] (SST5 over SST2, class symbols), the “Fold selectivity for SST5 vs SST2” value is listed as “++ (++=100 to 499)”.

For `Cn1c(-c2cncc(-c3ccc(F)c(C#N)c3)c2N2CC[C@H](N)C2)nc2c(Cl)cccc21` [Compound 2-131, 5-{4-[(3S)-3-aminopyrrolidin-1-yl]-5-(4-chloro-1-methyl-1H-1,3-benzodiazol-2-yl)pyridin-3-yl}-2-fluorobenzonitrile], the EC50 in assay [1] is above 1000 nM; in assay [3] it was 10 to 100 nM; in assay [3] (setting [4]) it was 10 to 100 nM. For the same compound, in assay [3] (SST5 over SST2, class symbols), the “Fold selectivity for SST5 vs SST2” value was “+++ (+++=≥500)”.

With `Cc1cc(-c2cncc(-c3nc4c(F)cccc4[nH]3)c2N2CC[C@H](N)C2)ccn1` [Compound 2-181, (3S)-1-[5-(4-fluoro-1H-1,3-benzodiazol-2-yl)-2′-methyl-[3,4′-bipyridin]-4-yl]pyrrolidin-3-amine], the EC50 is above 1000 nM in assay [1], 10 to 100 nM in assay [3] and 10 to 100 nM in assay [3] (setting [4]). Besides, the “Fold selectivity for SST5 vs SST2” value in assay [3] (SST5 over SST2, class symbols) is given as “++ (++=100 to 499)”.

For the compound `CC(N)C1CN(c2c(-c3cc(F)cc(C(F)(F)F)c3)cncc2-c2nc3cc(F)cc(F)c3[nH]2)C1` (centres unmarked) [Compound 1-71, 1-{1-[3-(4,6-difluoro-1H-1,3-benzodiazol-2-yl)-5-[3-fluoro-5-(trifluoromethyl)phenyl]pyridin-4-yl]azetidin-3-yl}ethan-1-amine], the EC50 in assay [1] was above 1000 nM; in assay [3] (setting [4]), below 10 nM. The “Fold selectivity for SST5 vs SST2” value in assay [3] (SST5 over SST2, class symbols) is reported as “+++ (+++=≥500)”.

For the compound `Cc1ccnc2nc(-c3cncc(-c4cc(F)cc(C#N)c4)c3N3CCC(C)(N)C3)[nH]c12` (centres unmarked) [Compound 2-108, 3-[4-(3-amino-3-methylpyrrolidin-1-yl)-5-{7-methyl-1H-imidazo[4,5-b]pyridin-2-yl}pyridin-3-yl]-5-fluorobenzonitrile], the EC50 is 100 to 1000 nM in assay [1], below 10 nM in assay [3] and below 10 nM in assay [3] (setting [4]). Also, the “Fold selectivity for SST5 vs SST2” value in assay [3] (SST5 over SST2, class symbols) is reported as “++ (++=100 to 499)”.
